Measured values taken from patent US9828350B2, “5,6-dihydro-2H-[1,4]oxazin-3-yl-amine derivatives useful as inhibitors of beta-secretase (BACE)” (Janssen Pharmaceutica NV, priority 2010, dated 2017).
Where a name gives a salt, the structure may show the parent alone.

What was measured:
[1] = target: recombinant BACE1 protein (Homo sapiens, UniProt P56817); test: Biochemical FRET based assay; conditions: recombinant BACE1 1 μg/ml, 120 minutes at room temperature, pH 5.0; for IC50: read-out: Biochemical FRET based assay pIC50 (converted)
Summary of the method: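 Recombinant BACE1 (1 μg/ml final) was incubated 120 minutes at room temperature with […] Mca/Dnp-labelled 13-mer APP Swedish-mutant peptide in 40 mM citrate pH 5.0, 0.04% PEG, 4% DMSO, with or without compound. Cleavage was measured as fluorescence (ex 320/em 405 nm), given as RFU difference between T120 and T0.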

[2] = test system: Abeta total; test: Cellular αLisa assay in SKNBE2 cells, Abeta total; type: cell-based, human; conditions: incubated for 18 hours; for IC50: Homo sapiens, SKNBE2, 18 h, read-out: Cellular αLisa assay in SKNBE2 cells Abetatotal pIC50 (converted)
Summary of the method: (§1)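 Human neuroblastoma SKNBE2 cells expressing wild-type hAPP695 were incubated with compound for 18 hours. Secreted Abeta total and Abeta 1-42 in medium were quantified by sandwich αLisa: biotinylated AbN/25 on streptavidin donor beads with Ab4G8 (total) or cAb42/26 (1-42) acceptor beads. Light emission read after 1 hour (ex 650 nm, em 615 nm).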

[3] = test system: Abeta 1-42; test: Cellular αLisa assay in SKNBE2 cells, Abeta 1-42; type: cell-based, human; conditions: incubated for 18 hours; for IC50: Homo sapiens, SKNBE2, 18 h, read-out: Cellular αLisa assay in SKNBE2 cells Abeta 42 pIC50 (converted)
Summary of the method: as §1

[4] = test system: Aβ42; test: Demonstration of in vivo efficacy, brain Aβ42 lowering (ELISA); conditions: mouse brain
From the text: (§2) To determine whether acute administration of an Aβ42 peptide lowering agent would reduce Aβ peptide levels in vivo, non-transgenic rodents, e.g. mice or rats were used. Animals treated with the Aβ peptide lowering agent were examined and compared to those untreated or treated with vehicle and brain levels of soluble Aβ42 and total Aβ were quantitated by standard techniques, for example, using ELISA.
(§3) A typical protocol for measuring Aβ42 lowering in vivo is shown but it is only one of many variations that could be used to optimize the levels of detectable Aβ. For example, Aβ peptide lowering compounds were formulated in 20% hydroxypropyl 3 cyclodextrin. The Aβ peptide lowering agents were administered as a single oral dose (p.o.) or a single subcutaneous dose (s.c.) to overnight fasted animals. After a certain time, usually 2 or 4 h (as indicated in Table 19), the animals were sacrificed and Aβ42 levels were analysed.
(§4) Blood was collected by decapitation and exsanguinations in EDTA-treated collection tubes. Blood was centrifuged at 1900 g for 10 minutes (min) at 4° C. and the plasma recovered and flash frozen for later analysis. The brain was removed from the cranium and hindbrain. The cerebellum was removed and the left and right hemisphere were separated. The left hemisphere was stored at −18° C. for quantitative analysis of test compound levels. The right hemisphere was rinsed with phosphate-buffered saline (PBS) buffer and immediately frozen on dry ice and stored at −80° C. until homogenization for biochemical assays.
(§5) Mouse brains from non-transgenic animals were resuspended in 8 volumes of 0.4% DEA (diethylamine)/50 mM NaCl containing protease inhibitors (Roche-11873580001 or 04693159001) per gram of tissue, e.g. for 0.158 g brain, add 1.264 ml of 0.4% DEA. All samples were homogenized in the FastPrep-24 system (MP Biomedicals) using lysing matrix D (MPBio #6913-100) at 6 m/s for 20 seconds. Homogenates were centrifuged at 221.300×g for 50 min. The resulting high speed supernatants were then transferred to fresh eppendorf tubes. Nine parts of supernatant were neutralized with 1 part 0.5 M Tris-HCl pH 6.8 and used to quantify Aβtotal and Aβ42.
(§6) To quantify the amount of Aβtotal and Aβ42 in the soluble fraction of the brain homogenates, Enzyme-Linked-Immunosorbent-Assays were used. Briefly, the standards (a dilution of synthetic Aβ1-40 and Aβ1-42, Bachem) were prepared in 1.5 ml Eppendorf tube in Ultraculture, with final concentrations ranging from 10000 to 0.3 pg/ml. The samples and standards were co-incubated with HRPO-labelled N-terminal antibody for Aβ42 detection and with the biotinylated mid-domain antibody 4G8 for Aβtotal detection. […] The plate was allowed to incubate overnight at 4° C. in order to allow formation of the antibody-amyloid complex. Following this incubation and subsequent wash steps the ELISA for Aβ42 quantification was finished by addition of Quanta Blu fluorogenic peroxidase substrate according to the manufacturer's instructions (Pierce Corp., Rockford, Ill.). A reading was performed after 10 to 15 min (excitation 320 nm/emission 420 nm).

[5] = test system: Aβtotal; test: Demonstration of in vivo efficacy, brain Aβtotal lowering (ELISA); conditions: mouse brain
From the text: as §2, §3, §4, §5, §6
For Aβtotal detection, a Streptavidine-Peroxidase-Conjugate was added, followed 60 min later by an additional wash step and addition of Quanta Blu fluorogenic peroxidase substrate according to the manufacturer's instructions (Pierce Corp., Rockford, Ill.). A reading was performed after 10 to 15 min (excitation 320 nm/emission 420 nm).

Chain of recombinant BACE1 protein (P56817 46-501): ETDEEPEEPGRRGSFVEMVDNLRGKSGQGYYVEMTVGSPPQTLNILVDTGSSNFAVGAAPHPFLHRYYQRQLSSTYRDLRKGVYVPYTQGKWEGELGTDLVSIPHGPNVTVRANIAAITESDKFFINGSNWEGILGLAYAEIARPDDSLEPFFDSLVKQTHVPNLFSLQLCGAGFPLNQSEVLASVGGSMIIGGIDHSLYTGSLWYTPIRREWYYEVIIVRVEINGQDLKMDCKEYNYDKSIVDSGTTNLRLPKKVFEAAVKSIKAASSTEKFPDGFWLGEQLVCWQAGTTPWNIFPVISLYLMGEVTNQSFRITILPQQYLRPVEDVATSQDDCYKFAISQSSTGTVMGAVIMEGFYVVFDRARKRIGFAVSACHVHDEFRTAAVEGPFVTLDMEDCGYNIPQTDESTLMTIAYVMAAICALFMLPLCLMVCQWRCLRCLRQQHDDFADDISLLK

## CC1(c2cccc(-c3ccccc3)c2)COCC(N)=N1 (racemic) [Compound 1, rac-5-biphenyl-3-yl-5-methyl-5,6-dihydro-2H-1,4-oxazin-3-amine trifluoroacetate salt]
[1]
  IC50: 24000 nM
[2]
  IC50: 1020 nM
[3]
  IC50: 1480 nM
[4]; 30 mpk, s.c., 4 h
  Aβ42 (% Ctrl)_Mean: 102 % Ctrl
[5]; 30 mpk, s.c., 4 h
  Aβtotal (% Ctrl)_Mean: 97 % Ctrl

## CC1(c2cccc(NC(=O)c3ccc(Cl)cn3)c2)COC(F)(C(F)(F)F)C(N)=N1 (racemic) [Compound 9, rac-N-{3-[5-amino-6-fluoro-3-methyl-6-(trifluoromethyl)-3,6-dihydro-2H-1,4-oxazin-3-yl]phenyl}-5-chloropyridine-2-carboxamide]
[1]
  IC50: 3470 nM
[2]
  IC50: 8510 nM
[3]
  IC50: > 10000 nM
[4]; 30 mpk, s.c., 4 h
  Aβ42 (% Ctrl)_Mean: 87 % Ctrl
[5]; 30 mpk, s.c., 4 h
  Aβtotal (% Ctrl)_Mean: 101 % Ctrl
other
  melting point: 193.3 °C

## CC1(c2cccc(NC(=O)c3ccc(C(F)(F)F)cn3)c2)COCC(N)=N1 (racemic) [Compound 14]
[1]
  Biochemical FRET based assay pIC50: 6.28
[2]
  Cellular αLisa assay in SKNBE2 cells Abetatotal pIC50: 7.56
[3]
  Cellular αLisa assay in SKNBE2 cells Abeta 42 pIC50: 7.49
[4]; 30 mpk, s.c., 4 h
  Aβ42 (% Ctrl)_Mean: 107 % Ctrl
[5]; 30 mpk, s.c., 4 h
  Aβtotal (% Ctrl)_Mean: 116 % Ctrl

## CC1(c2cc(-c3cncnc3)c(F)cc2F)COCC(N)=N1 (racemic) [Compound 59]
[1]
  Biochemical FRET based assay pIC50: 5.36
[2]
  Cellular αLisa assay in SKNBE2 cells Abetatotal pIC50: 6.417
[3]
  Cellular αLisa assay in SKNBE2 cells Abeta 42 pIC50: 6.44
[4]; 30 mpk, s.c., 2 h
  Aβ42 (% Ctrl)_Mean: 114 % Ctrl
[5]; 30 mpk, s.c., 2 h
  Aβtotal (% Ctrl)_Mean: 95 % Ctrl

## COc1cncc(-c2cccc(C3(C)COCC(N)=N3)c2)c1 (single isomer, unassigned) [Compound 8]
[1]
  IC50: 2040 nM
[2]
  IC50: 178 nM
[3]
  IC50: 214 nM
[4]; 30 mpk, s.c., 4 h
  Aβ42 (% Ctrl)_Mean: 92 % Ctrl
[5]; 30 mpk, s.c., 4 h
  Aβtotal (% Ctrl)_Mean: 98 % Ctrl
other
  melting point: 79.5 °C

## CC1(c2cccc(NC(=O)c3ccc(C#N)cn3)c2)COCC(N)=N1 (single isomer, unassigned) [Compound 50]
[1]
  Biochemical FRET based assay pIC50: 6.93
[2]
  Cellular αLisa assay in SKNBE2 cells Abetatotal pIC50: 7.88
[3]
  Cellular αLisa assay in SKNBE2 cells Abeta 42 pIC50: 7.91
[4]; 5 mpk, s.c., 4 h
  Aβ42 (% Ctrl)_Mean: 133 % Ctrl
[5]; 5 mpk, s.c., 4 h
  Aβtotal (% Ctrl)_Mean: 95 % Ctrl

## CC1(c2cccc(-c3cncnc3)c2)N=C(N)COC1F (single isomer, unassigned) [Compound 96]
[1]
  IC50: 11200 nM
[2]
  Cellular αLisa assay in SKNBE2 cells Abetatotal pIC50: 6.43
[3]
  Cellular αLisa assay in SKNBE2 cells Abeta 42 pIC50: 6.46
[4]; 30 mpk, s.c., 4 h
  Aβ42 (% Ctrl)_Mean: 116 % Ctrl
[5]; 30 mpk, s.c., 4 h
  Aβtotal (% Ctrl)_Mean: 104 % Ctrl

## CC1(c2cccc(-c3cncnc3)c2)N=C(N)COC1(F)C(F)(F)F (single isomer, unassigned) [Compound 117]
[1]
  IC50: 437 nM
[2]
  Cellular αLisa assay in SKNBE2 cells Abetatotal pIC50: 6.55
[3]
  Cellular αLisa assay in SKNBE2 cells Abeta 42 pIC50: 6.59
[4]; 30 mpk, s.c., 2 h
  Aβ42 (% Ctrl)_Mean: 95 % Ctrl
[5]; 30 mpk, s.c., 2 h
  Aβtotal (% Ctrl)_Mean: 86 % Ctrl

## CC1(c2cc(NC(=O)c3ccc(C#N)cn3)ccc2F)N=C(N)COC1F (single isomer, unassigned) [Compound 124]
[2]
  Cellular αLisa assay in SKNBE2 cells Abetatotal pIC50: 8.2
[3]
  Cellular αLisa assay in SKNBE2 cells Abeta 42 pIC50: 8.21
[4]; 30 mpk, p.o., 4 h
  Aβ42 (% Ctrl)_Mean: 23 % Ctrl
[5]; 30 mpk, p.o., 4 h
  Aβtotal (% Ctrl)_Mean: 25 % Ctrl

## CC1(c2cccc(-c3cncc(C#N)c3)c2)N=C(N)COC1C(F)(F)F (single isomer, unassigned) [Compound 204]
[1]
  IC50: 363 nM
[2]
  Cellular αLisa assay in SKNBE2 cells Abetatotal pIC50: 7.06
[3]
  Cellular αLisa assay in SKNBE2 cells Abeta 42 pIC50: 7.05
[4]; 30 mpk, s.c., 4 h
  Aβ42 (% Ctrl)_Mean: 113 % Ctrl
[5]; 30 mpk, s.c., 4 h
  Aβtotal (% Ctrl)_Mean: 103 % Ctrl

## C[C@@]1(c2cccc(-c3cc(Cl)cc(Cl)c3)c2)COCC(N)=N1 [Compound 52]
[1]
  Biochemical FRET based assay pIC50: 6.06
[2]
  Cellular αLisa assay in SKNBE2 cells Abetatotal pIC50: 6.66
[3]
  Cellular αLisa assay in SKNBE2 cells Abeta 42 pIC50: 6.68
[4]; 30 mpk, s.c., 2 h
  Aβ42 (% Ctrl)_Mean: 68 % Ctrl
[5]; 30 mpk, s.c., 2 h
  Aβtotal (% Ctrl)_Mean: 114 % Ctrl

## COc1cnc(C(=O)Nc2ccc(F)c([C@@]3(C)N=C(N)CO[C@@H]3F)c2)cn1 [Compound 123]
[2]
  IC50: 10.5 nM
[3]
  IC50: 10.7 nM
[4]; 10 mpk, p.o., 4 h
  Aβ42 (% Ctrl)_Mean: 38 % Ctrl
[4]; 10 mpk, s.c., 4 h
  Aβ42 (% Ctrl)_Mean: 24 % Ctrl
[5]; 10 mpk, p.o., 4 h
  Aβtotal (% Ctrl)_Mean: 38 % Ctrl
[5]; 10 mpk, s.c., 4 h
  Aβtotal (% Ctrl)_Mean: 21 % Ctrl

## C[C@]1(c2cc(NC(=O)c3ncc(C#N)cc3Cl)ccc2F)N=C(N)CO[C@@H]1F [Compound 209]
[1]
  IC50: 39.8 nM
[2]
  IC50: 13.8 nM
[3]
  IC50: 15.5 nM
[4]; 10 mpk, p.o., 4 h
  Aβ42 (% Ctrl)_Mean: 6 % Ctrl
[5]; 10 mpk, p.o., 4 h
  Aβtotal (% Ctrl)_Mean: 14 % Ctrl

## COc1cnc(C(=O)Nc2ccc(F)c([C@@]3(C4CC4)N=C(N)CO[C@H]3F)c2)cn1 [Compound 217]
[2]
  IC50: 490 nM
[3]
  IC50: 525 nM
[4]; 30 mpk, p.o., 2 h
  Aβ42 (% Ctrl)_Mean: 80 % Ctrl
[5]; 30 mpk, p.o., 2 h
  Aβtotal (% Ctrl)_Mean: 73 % Ctrl

## N#Cc1cnc(C(=O)Nc2ccc(F)c([C@@]3(C4CC4)N=C(N)CO[C@@H]3F)c2)c(Cl)c1 [Compound 218]
[1]
  IC50: 126 nM
[2]
  IC50: 832 nM
[3]
  IC50: 851 nM
[4]; 30 mpk, s.c., 2 h
  Aβ42 (% Ctrl)_Mean: 99 % Ctrl
[5]; 30 mpk, s.c., 2 h
  Aβtotal (% Ctrl)_Mean: 90 % Ctrl

## NC1=N[C@@](c2cc(NC(=O)c3ncc(Cl)cc3F)ccc2F)(C2CC2)[C@@H](F)OC1 [Compound 219]
[1]
  IC50: 93.3 nM
[2]
  IC50: 282 nM
[3]
  IC50: 309 nM
[4]; 30 mpk, s.c., 2 h
  Aβ42 (% Ctrl)_Mean: 95 % Ctrl
[5]; 30 mpk, s.c., 2 h
  Aβtotal (% Ctrl)_Mean: 86 % Ctrl

## COc1cnc(C(=O)Nc2cccc(C3(C4CC4)N=C(N)COC3C(F)(F)F)c2)cn1 (centres unmarked) [Compound 228]
[1]
  Biochemical FRET based assay pIC50: 6.67
[2]
  Cellular αLisa assay in SKNBE2 cells Abetatotal pIC50: 7.35
[3]
  Cellular αLisa assay in SKNBE2 cells Abeta 42 pIC50: 7.31
[4]; 30 mpk, p.o., 2 h
  Aβ42 (% Ctrl)_Mean: 99 % Ctrl
[5]; 30 mpk, p.o., 2 h
  Aβtotal (% Ctrl)_Mean: 79 % Ctrl
